Experimental data reported in US10450327B2, “Epidithiodioxopiperazine compound or its derivatives, and the use thereof” (priority 2011, dated 2019).
Entries after “also recorded” stand apart in the source; their conditions may differ.

Assays:
[1] = system: HAECs; format: cell-based, human; conditions: up to 50 nM (100 nM for A4, A7, A9)
Procedure: For cell proliferation assay, HAECs were divided at a concentration of 4000 cells/well in a final volume of 100 μl onto a 96-well plate including a siRNA-transfection reagent mixture. After siRNA-transfected for 24 hours, the cells were serum-starved for 18 hours, and then placed in an EBM-2 basal medium supplemented with VEGF-A165 (25 ng/ml, Cat no. 293-VE, R&D systems) for additional 24 hours. The extent of cell proliferation was measured using a WST-1 cell proliferation assay kit (Roche Diagnostics, USA), and the number of cells was expressed as absorbance at 450 nm, which was averaged from 3 wells after subtracting the turbidity at 600 nm.
The cell migration assay was performed in a 24-well Transwell culture chamber (Costar; 8-μm pore size). The bottom of the filter was coated with gelatin B (1 mg/ml) and air-dried for 1 hour. HAECs (6×10^3) were added to upper chambers including siRNA-transfection complexes. After 24 hours, the siRNA-transfected HAECs were serum-starved overnight. A solution of VEGF-A (25 ng/ml) was prepared in a basal medium including 0.5% bovine serum albumin (BSA), and added to bottom chambers. The upper chamber wells were each filled with a basal medium including 0.5% BSA. The Transwell chamber was incubated for 8 hours under the condition of 37° C./5% carbon dioxide. After the incubation, the non-migrated cells at the top of the filter were removed, and the cells that migrated onto the bottom of filter were fixed and stained with 0.6% hematoxylin and 0.5% eosin. The stained cells were photographed and counted. The number of migrating cells was averaged from 3 wells.

[2] = system: HASMCs; format: cell-based, human; conditions: up to 100 nM (200 nM for A4, A7, A9)
[3] = system: yeast thioredoxin (Trx) / yeast thioredoxin reductase (TR) system; test: Peroxidase activity assay (hydrogen peroxide reduction), Trx/TR system; format: biochemical
Procedure: The peroxidase activity assay for the epidithiodioxopiperazine derivatives according to the present invention (hereinafter, referred to as ETP compounds) was performed according to known methods [Korean Patent No. 10-0953326]. A standard peroxidase reaction for spectrophotometric assay was carried out using a 200 μl reaction mixture of 1 mM EDTA-containing 50 mM Hepes-NaOH buffer solution (pH 7.0) including 250 μM NADPH, 3 μM yeast thioredoxin (Trx), 1.5 μM yeast thioredoxin reductase (TR), 25 μM ETP compound and […] of hydrogen peroxide. For the comparison with a glutathione (GSH)-dependent peroxidase reaction, GSH (1 mM) and yeast glutathione reductase (GSH reductase; GR) (1 Unit) were added instead of yeast Trx and TR. Each reaction was initiated by adding hydrogen peroxide, and the NADPH oxidation was monitored for 12 minutes at 30° C. according to absorbance decrease at 340 nm using an Agilent UV8453 spectrophotometer (Hewlett Packard, USA). The initial reaction rate was calculated using the linear portion of the curve and expressed as the amount of NADPH oxidized per minute.
The chemical feature of the epidithiodioxopiperazine compound of the present invention or its derivatives is the intramolecular disulfide bridge present in the epidithiodioxopiperazine ring moiety. Cellular peroxidase reduces hydrogen peroxide utilizing the electrons derived from NADPH via two electron-transfer routes, that is, Trx/TR or GSH/GR, therefore, spectrophotometric assay was performed for the hydrogen peroxide-reducing activity in the presence of each system, and the results are shown in FIGS. 1 to 5.

[4] = system: balloon-injured rat carotid artery; test: Balloon-injury model of rat carotid artery; format: in vivo; conditions: local administration to the lumen through catheter, 30 minutes; ETP derivatives 200 nM; 10 days recovery
Procedure: Animal experiments were performed in compliance with the guidelines of Institutional Animal Care and Use Committee (IACUC) of the Ewha Womans University. Balloon injury was created using an infiltrated 2 F Fogarty balloon catheter in the left common carotid artery as follows: after the ten-week-old male Sprague-Dawley rats were anaesthetized by isoflurane gas (N2O:O2/70%:30%) inhalation, the left external carotid artery was exposed, and its branches were electrocoagulated. A catheter was pushed 1 cm in through the transverse arteriotomy of the external carotid artery, and the endothelial denudation was achieved by three passes along the common carotid artery. After the catheter was removed, the punched area was sealed and the clapped common carotid artery was opened for resuming the blood flow. Unless otherwise stated, the rats were recovered in a cage for 10 days, and subjected to histological and immunological analyses.
Rats were anesthetized, and the common carotid artery was excised after transcardiac perfusion-fixation with a heparinized saline solution containing 3.7% formaldehyde. The vessels were paraffin embedded and sectioned using a rotary microtome (Leica RM2255). Two serial tissue sections (4 μm in thickness) were obtained from the middle area of common carotid arteries, and stained with haematoxylin and eosin (HE). The luminal, internal elastic laminal, and external elastic laminal areas were measured using NIH Image v1.62. The intimal and medial areas were determined by subtracting the luminal area from the internal elastic area and subtracting the internal elastic area from the external elastic area. The values from the two serial sections for each rat were averaged for analysis.
For the in vivo injection of siRNA, a siRNA mixture specific to rat PrxII (200 nM) was premixed with a siPORT™ NeoFX™ reagent according to the instructions of the manufacturer (Ambion). Immediately after the balloon injury, the siRNA-injected mixture (200 μL) was injected through a catheter after briefly washed with Opti-MEM. After the incubation for 15 minutes, the blood flow was resumed. A siGLO-Red (Dharmacon), which is fluorescent dye-conjugated control siRNA, was used for optimizing in vivo injection efficiency. Similarly, the ETP compound (200 nM in DMSO) was injected through a catheter and incubated for 30 minutes.
Immunohistochemistry for the overoxidized 2-Cys Prxs was performed on the paraffin sections using an anti-Prx-SO2/3 antibody (1:1000 dilution). Briefly, the sections were de-waxed in xylene and rehydrated in ethanol, and subsequently the antigen retrieval was performed by boiling in a citric buffer solution (pH 6.0). After that, the sections were incubated with a primary antibody for 48 hours at 4° C. After washing three times with a phosphatebuffered saline solution, the sections were incubated with a peroxidase-conjugated secondary antibody and stained with a 3′,3′-diaminobenzidine (DAB) substrate solution. For negative staining, the Prx-502/3 antibody was blocked with the corresponding antigenic peptide (DFTFVC(SO2/3)PTEI). For indirect immunofluorescence staining, the paraffin sections were blocked with 5% normal rabbit serum (Vector Laboratories) in PBST (a PBS solution of 0.3% Triton X-100) for 1 hour at room temperature. The sections were then incubated overnight at 4° C. with the […] against rat smooth muscle α-actin (1:300 dilution) and rat CD31 (PECAM-1, 1:200 dilution). The nuclei were labeled with DAPI. After several PBST washes, the samples were incubated for 2 hours at room temperature with Alexa Fluor 568-conjugated donkey anti-mouse and Alexa Fluor 488-conjugated donkey anti-rabbit IgG antibodies. The fluorescence images were recorded on three random fields per tissue section at a screen magnification of 100× using a LSM 510 Meta confocal microscope equipped with argon and helium-neon lasers.
The paraffin sections were incubated for 10 minutes in PBS containing 0.1% Triton X-100. […]

SMILES	VEGF-induced proliferation and chemotactic transmigration of HAECs, impaired by PrxII knockdown [1]	proliferation and chemotactic transmigration of HASMCs in response to PDGF, enhanced by PrxII knockdown [2]	initial reaction rate for hydrogen peroxide reduction compared to the corresponding oxidized type [3]	hydrogen peroxide-reducing (peroxidase) activity in the presence of a Trx/TR system, in words [3]	intimal hyperplasia (ratio of intima versus media, HE staining) [4]
O=C1NC2SSC1NC2=O [Compound A1, 2,3-dithia-5,7-diazabicyclo[2.2.2]octane-6,8-dione]	excellent activities	excellent activities			
CN1C(=O)C2SSC1C(=O)N2C [Compound A2, 5,7-dimethyl-2,3-dithia-5,7-diazabicyclo[2.2.2]-octane-6,8-dione]	excellent activities	excellent activities			
CN1C(=O)C(S)N(C)C(=O)C1S (centres unmarked) [Compound A2R, 3,6-dimercapto-1,4-dimethylpiperazine-2,5-dione]	no significant changes	no significant changes	higher intial reaction rates		
CN1C(=O)C2(C)SSC1C(=O)N2C (centres unmarked) [Compound A3, 1,5,7-trimethyl-2,3-dithia-5,7-diazabicyclo[2.2.2]octane-6,8-dione]	excellent activities	excellent activities			
COc1ccc(CN2C(=O)C3SSC2C(=O)N3Cc2ccc(OC)cc2)cc1 [Compound A4, 5,7-bis(4-methoxybenzyl)-2,3-dithia-5,7-diazabicyclo[2.2.2]octane-6,8-dione]	insignificant activities; also recorded: low activities	insignificant activities; also recorded: low activities			
C=CCN1C(=O)C2SSC1C(=O)N2CC=C [Compound A5, 5,7-diallyl-2,3-dithia-5,7-diazabicyclo[2.2.2]octane-6,8-dione]	excellent activities	excellent activities			
C=CCN1C(=O)C(S)N(CC=C)C(=O)C1S (centres unmarked) [Compound A5R, 3,6-dimercapto-1,4-diallylpiperazine-2,5-dione]	no significant changes	no significant changes	higher intial reaction rates		
COc1ccc(CN2C(=O)C3NC(=O)C2SS3)cc1 (centres unmarked) [Compound A6, 5-(4-methoxybenzyl)-2,3-dithia-5,7-diazabicyclo[2.2.2]octane-6,8-dione]	moderate activities	moderate activities			
O=C1C2SSC(C(=O)N2C(c2ccccc2)c2ccccc2)N1C(c1ccccc1)c1ccccc1 [Compound A7, 5,7-dibenzhydryl-2,3-dithia-5,7-diazabicyclo[2.2.2]octane-6,8-dione]	insignificant activities; also recorded: low activities	insignificant activities; also recorded: low activities			
CCCCN1C(=O)C2SSC1C(=O)N2CCCC [Compound A8, 5,7-dibutyl-2,3-dithia-5,7-diazabicyclo[2.2.2]octane-6,8-dione]	excellent activities	excellent activities			
COCCCN1C(=O)C2SSC1C(=O)N2CCCOC [Compound A9, 5,7-bis(3-methoxypropyl)-2,3-dithia-5,7-diazabicyclo[2.2.2]octane-6,8-dione]	insignificant activities; also recorded: moderate activities	insignificant activities; also recorded: moderate activities			
CS[C@]1(CO)C(=O)N2[C@H]3C(=CC=C[C@@H]3O)C[C@@]2(SC)C(=O)N1C [bis(methylthio)gliotoxin, Bis(methylthio)gliotoxin]				not observed	did not suppress
